Counter-ions that a name gives are not always drawn.
Assay: Solubility in water (strength of solutions that can be prepared)

| strength of solutions in water that can be prepared (solubility in water) | SMILES |
| --- | --- |
| approximately 2.8 % (w/w) | N#Cc1c(N2C[C@@H]3CCCN[C@@H]3C2)c(F)cc2c(=O)c(C(=O)O)cn(C3CC3)c12 [CCDC hydrochloride] |
| about 0.02 % (w/w) | N#Cc1c(N2C[C@@H]3CCCN[C@@H]3C2)c(F)cc2c(=O)c(C(=O)O)cn(C3CC3)c12 [CCDC, 8-Cyano-1-cyclopropyl-7-(1S,6S-2,8-diazabicyclo[4.3.0]nonan-8-yl)-6-fluoro-1,4-dihydro-4-oxo-3-quinolinecarboxylic acid] |

From patent US6995170B1, “Semi-hydrochloride of 8-cyano-1-cyclopropyl-7-(1S,6S-2,8-diazabicyclo[4.3.0]nonan-8-yl)-6-fluoro-1, 4-dihydro-4-oxo-3-quinolinecarboxylic acid” (Bayer Aktiengesellschaft, priority 1998, dated 2006)
